Measurements taken from US20050159599A1, “Cyclic compound, process for producing the same, and pest control agent” (priority 2002, published 2005).

system: Spodoptera litura; assay: Insecticidal effect for Spodoptera litura by spraying treatment to host crop (Test Example 2); assay type: in vivo; details: 100 ppm; sprayed on soybean; third-instar larvae of Spodoptera litura; fifth day after
Description: Insecticidal Effect for Spodoptera litura by Spraying Treatment to Host Crop
A pesticidal solution, which was prepared by dissolving 5 mg of test compound (represented by the compound Nos. in the above Examples) in 0.5-ml of acetone containing Tween 20 (trade name) and then diluting it to the prescribed concentration (100 ppm) with Dain (trade name, sticker) water diluted 5000-fold, was sprayed on a soybean whose primary leaves had developed completely with spray gun in the amounts wherein the pesticidal solution dripped. After drying the pesticidal solution, two primary leaves were cut off. The leaves were put into an ice cream cup (180 ml), and ten third-instar larvae of Spodoptera litura were set free therein. The cup was left in a temperature-controlled breeding room (25° C.). On the fifth day after, the number of surviving Spodoptera litura was examined. The rate of dead pests was calculated by the following formula. rate of dead pests (%)=(number of dead pests/number of test pests)×100

SMILES	rate of dead pests (%)
O=C(c1c(F)cccc1F)N1COCN(c2ccc(Oc3ccc(C(F)(F)F)cc3Cl)cc2F)C1=O [I-3]	100
O=C(c1c(F)cccc1F)N1COCN(c2cc(Cl)c(OC(F)(F)C(F)F)c(Cl)c2)C1=O [I-5]	100
O=C(c1c(F)cccc1F)N1COCN(c2cc(Cl)c(OC(F)(F)C(F)C(F)(F)F)cc2Cl)C1=O (stereo not shown) [I-6]	100
O=C(c1c(F)cccc1F)N1COCN(c2ccc(SC(F)(F)C(F)Cl)cc2F)C1=O (stereo not shown) [I-7]	100
CSc1cc(F)c(N2COCN(C(=O)c3c(F)cccc3F)C2=O)c(F)c1 [I-31]	100
Cc1cc(SC(F)(F)F)ccc1N1COCN(C(=O)c2c(F)cccc2F)C1=O [I-68]	100
O=C(c1c(F)cccc1F)N1COCN(c2ccc(SC(F)(F)F)c(Cl)c2)C1=O [I-77]	100
O=C(c1c(F)cccc1F)N1COCN(c2ccc(SC(F)(F)F)c(F)c2)C1=O [I-80]	100
Cc1c(SC(F)(F)F)ccc(N2COCN(C(=O)c3c(F)cccc3F)C2=O)c1C [I-83]	100
Cc1cc(N2COCN(C(=O)c3c(F)cccc3F)C2=O)c(C)cc1SC(F)(F)F [I-86]	100
Cc1cc([S+]([O-])C(F)(F)F)c(C)cc1N1COCN(C(=O)c2c(F)cccc2F)C1=O (stereo not shown) [I-87]	100
Cc1cc(SC(F)(F)F)c(Cl)cc1N1COCN(C(=O)c2c(F)cccc2F)C1=O [I-89]	100
Cc1cc([S+]([O-])C(F)(F)F)c(Cl)cc1N1COCN(C(=O)c2c(F)cccc2F)C1=O (stereo not shown) [I-90]	100
O=C(c1c(F)cccc1F)N1COCN(c2ccc(SC(F)(F)F)c(Cl)c2Cl)C1=O [I-92]	100
O=C(c1c(F)cccc1F)N1COCN(c2ccc(SC(F)(F)F)c(Cl)c2F)C1=O [I-95]	100
O=C(c1c(F)cccc1F)N1COCN(c2ccc([S+]([O-])C(F)(F)F)c(Cl)c2F)C1=O (stereo not shown) [I-96]	100
O=C(c1c(F)cccc1F)N1COCN(c2cc(Cl)c([S+]([O-])C(F)(F)F)cc2F)C1=O (stereo not shown) [I-99]	100
O=C(c1c(F)cccc1F)N1COCN(c2ccc(SC(F)(F)F)c(F)c2F)C1=O [I-107]	100
O=C(c1c(F)cccc1F)N1COCN(c2cc(F)c(SC(F)(F)F)cc2F)C1=O [I-110]	100
O=C(c1c(F)cccc1F)N1COCN(c2cc(F)c(SC(F)(F)F)c(F)c2)C1=O [I-113]	100
O=C(c1c(F)cccc1F)N1COCN(c2c(F)cc([S+]([O-])C(F)(F)F)c(F)c2F)C1=O (stereo not shown) [I-117]	100
Cc1cc(SC(F)(F)F)c(F)cc1N1COCN(C(=O)c2c(F)cccc2F)C1=O [I-125]	100
CSc1cc(F)c(N2COCN(C(=O)c3c(F)cccc3Cl)C2=O)c(F)c1 [I-208]	100
Cc1cc(N2COCN(C(=O)c3c(F)cccc3Cl)C2=O)ccc1SC(F)(F)F [I-248]	100
O=C(c1c(F)cccc1Cl)N1COCN(c2ccc(SC(F)(F)F)c(Cl)c2)C1=O [I-254]	100

SMILES	rate of dead pests (%)
O=C(c1c(F)cccc1Cl)N1COCN(c2ccc(SC(F)(F)F)c(F)c2)C1=O [I-257]	100
O=C(c1c(F)cccc1Cl)N1COCN(c2ccc([S+]([O-])C(F)(F)F)c(F)c2)C1=O (stereo not shown) [I-258]	100
Cc1cc(SC(F)(F)F)c(Cl)cc1N1COCN(C(=O)c2c(F)cccc2Cl)C1=O [I-266]	100
O=C(c1c(F)cccc1Cl)N1COCN(c2ccc(SC(F)(F)F)c(Cl)c2Cl)C1=O [I-269]	100
O=C(c1c(F)cccc1Cl)N1COCN(c2ccc([S+]([O-])C(F)(F)F)c(Cl)c2Cl)C1=O (stereo not shown) [I-270]	100
O=C(c1c(F)cccc1Cl)N1COCN(c2ccc(SC(F)(F)F)c(Cl)c2F)C1=O [I-272]	100
O=C(c1c(F)cccc1Cl)N1COCN(c2ccc([S+]([O-])C(F)(F)F)c(Cl)c2F)C1=O (stereo not shown) [I-273]	100
O=C(c1c(F)cccc1Cl)N1COCN(c2cc(Cl)c([S+]([O-])C(F)(F)F)cc2F)C1=O (stereo not shown) [I-276]	100
O=C(c1c(F)cccc1Cl)N1COCN(c2c(F)cc([S+]([O-])C(F)(F)F)cc2Cl)C1=O (stereo not shown) [I-279]	100
O=C(c1c(F)cccc1Cl)N1COCN(c2c(F)cc([S+]([O-])C(F)(F)F)cc2F)C1=O (stereo not shown) [I-282]	100
O=C(c1c(F)cccc1Cl)N1COCN(c2ccc(SC(F)(F)F)c(F)c2F)C1=O [I-284]	100
O=C(c1c(F)cccc1Cl)N1COCN(c2ccc([S+]([O-])C(F)(F)F)c(F)c2F)C1=O (stereo not shown) [I-285]	100
O=C(c1c(F)cccc1Cl)N1COCN(c2cc(F)c(SC(F)(F)F)cc2F)C1=O [I-287]	100
O=C(c1c(F)cccc1Cl)N1COCN(c2cc(F)c(SC(F)(F)F)c(F)c2)C1=O [I-290]	100
O=C(c1c(F)cccc1Cl)N1COCN(c2c(F)cc(SC(F)(F)F)c(F)c2F)C1=O [I-293]	100
O=C(c1c(F)cccc1Cl)N1COCN(c2c(F)cc([S+]([O-])C(F)(F)F)c(F)c2F)C1=O (stereo not shown) [I-294]	100
O=C(c1c(F)cccc1Cl)N1COCN(c2c(F)c(F)c(SC(F)(F)F)c(F)c2F)C1=O [I-296]	100
Cc1c(N2COCN(C(=O)c3c(F)cccc3Cl)C2=O)ccc(SC(F)(F)F)c1Cl [I-299]	100
Cc1c(N2COCN(C(=O)c3c(F)cccc3Cl)C2=O)ccc([S+]([O-])C(F)(F)F)c1Cl (stereo not shown) [I-300]	100
Cc1cc(SC(F)(F)F)c(F)cc1N1COCN(C(=O)c2c(F)cccc2Cl)C1=O [I-302]	100
Cc1cc([S+]([O-])C(F)(F)F)c(F)cc1N1COCN(C(=O)c2c(F)cccc2Cl)C1=O (stereo not shown) [I-303]	100
O=C(c1c(F)cccc1Cl)N1COCN(c2ccc(SC(F)(F)C(F)(F)F)cc2F)C1=O [I-305]	100
O=C(c1c(F)cccc1Cl)N1COCN(c2ccc(SC(F)(F)C(F)(F)C(F)(F)F)cc2F)C1=O [I-320]	100
O=C(c1c(F)cccc1Cl)N1COCN(c2ccc(SC(F)(F)C(F)(F)C(F)(F)F)cc2Cl)C1=O [I-323]	100
O=C(c1c(F)cccc1Cl)N1COCN(c2ccc([S+]([O-])C(F)(F)C(F)(F)C(F)(F)F)cc2Cl)C1=O (stereo not shown) [I-324]	100

same assay, conditions: 120 h; 100 ppm; sprayed on soybean; third-instar larvae of Spodoptera litura; fifth day after; read-out: rate of dead pests (%)

SMILES	pest or weed control at 100 ppm [%]
O=C(c1c(F)cccc1F)N1COCN(c2ccc(SC(F)(C(F)(F)F)C(F)(F)F)cc2F)C1=O [I-158, 3-(2,6-difluorobenzoyl)-5-[2-fluoro-4-(1,1,1,2,3,3,3-heptafluoro-2-propylthio)phenyl]tetrahydro-4H-1,3,5-oxadiazin-4-one]	100

same assay, conditions: Spodoptera litura, in Glycine max, 120 h, read-out: rate of dead pests (%)

SMILES	pest or weed control at 100 ppm [%]
O=C(c1c(F)cccc1F)N1COCN(c2ccc(SC(F)(F)C(F)(F)C(F)(F)F)cc2F)C1=O [I-143, 3-(2,6-difluorobenzoyl)-5-[2-fluoro-4-(1,1,2,2,3,3,3-heptafluoro-1-propylthio)phenyl]tetrahydro-4H-1,3,5-oxadiazin-4-one]	100
